Consider 5 molecules from patent publication EP0787717A1, “Substituted diaryl dicarboxylic acid diguanidines, process for their preparation, their use as inhibitors of the Na+/H+ exchange as well as medicament or diagnostic agent containing them” (HOECHST AKTIENGESELLSCHAFT, priority 1996, dated 1997).

T1 sequence (P23791 whole entry): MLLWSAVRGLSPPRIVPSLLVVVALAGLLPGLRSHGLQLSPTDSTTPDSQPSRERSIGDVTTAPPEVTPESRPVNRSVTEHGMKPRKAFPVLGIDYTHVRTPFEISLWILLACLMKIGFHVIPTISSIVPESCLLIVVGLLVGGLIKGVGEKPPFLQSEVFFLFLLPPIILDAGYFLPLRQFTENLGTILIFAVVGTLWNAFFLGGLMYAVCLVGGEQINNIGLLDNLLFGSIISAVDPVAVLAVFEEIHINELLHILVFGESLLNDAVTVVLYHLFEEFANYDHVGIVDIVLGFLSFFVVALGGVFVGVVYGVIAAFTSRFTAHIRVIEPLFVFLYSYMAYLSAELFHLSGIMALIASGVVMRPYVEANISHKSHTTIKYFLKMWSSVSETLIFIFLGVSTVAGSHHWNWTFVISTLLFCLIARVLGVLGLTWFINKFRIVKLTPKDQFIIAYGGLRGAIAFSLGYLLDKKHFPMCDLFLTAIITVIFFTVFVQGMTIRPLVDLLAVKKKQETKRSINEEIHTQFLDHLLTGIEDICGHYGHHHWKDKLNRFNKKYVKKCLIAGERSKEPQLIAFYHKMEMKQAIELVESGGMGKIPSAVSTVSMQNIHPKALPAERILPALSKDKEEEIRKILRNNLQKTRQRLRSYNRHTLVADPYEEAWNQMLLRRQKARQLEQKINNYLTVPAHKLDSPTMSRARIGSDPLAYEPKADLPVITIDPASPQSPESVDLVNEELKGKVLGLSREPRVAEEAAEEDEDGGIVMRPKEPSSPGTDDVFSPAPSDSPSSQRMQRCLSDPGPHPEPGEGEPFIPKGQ

The assay concerns the target T1, Na ^+/H ^+-Exchangers von Kaninchenerythrocyten (Oryctolagus cuniculus, UniProt P23791).
T1 construct: den Na ^+-Influx in die Erythrocyten via Na ^+/H ^+-Austausch flammenphotometrisch bestimmen zu können; from tissue; host or cells: Erythrocytes in whole blood from the ear arteries of cholesterol-fed New Zealand White rabbits
Description: Inhibition of the Na+/H+ exchanger of rabbit erythrocytes (amiloride-sensitive sodium influx, flame photometry). Format: cell-based, Kaninchen. Conditions: hyperosmolar salt-sucrose medium, pH 7,4, 37°C, read-out: IC50 Inhibition des Na ^+/H ^+ -Exchangers. From the text: Inhibition des Na ^+/H ^+-Exchangers von Kaninchenerythrocyten Weiße Neuseeland-Kaninchen (Ivanovas) erhielten eine Standard-Diät mit […] für sechs Wochen, um den Na ^+ /H ^+-Austausch zu aktivieren und so den Na ^+-Influx in die Erythrocyten via Na ^+/H ^+-Austausch flammenphotometrisch bestimmen zu können. Das Blut wurde den Ohrarterien entnommen und durch 25 IE Kalium-Heparin ungerinnbar gemacht. Ein Teil jeder Probe wurde zur Doppelbestimmung des Hämatokrits durch Zentrifugieren benutzt. Aliquots von jeweils 100 µl dienten zur Messung des Na ^+-Ausgangsgehalts der Erythrocyten.
Um den Amilorid-sensitiven Natrium-Influx zu bestimmen, wurden 100 µl jeder Blutprobe in jeweils 5 ml eines hyperosmolaren Salz-Sucrose-Mediums (mmol/l: 140 NaCl, 3 KCl, 150 Sucrose, 0,1 Ouabain, 20 Tris-hydroxymethylaminomethan) bei pH 7,4 und 37°C inkubiert. Die Erythrocyten wurden danach dreimal mit eiskalter MgCl2-Ouabain-Lösung (mmol/l: 112 MgCl2, 0,1 Ouabain) gewaschen und in 2,0 ml destilliertem Wasser hämolysiert. Der intrazelluläre Natriumgehalt wurde flammenphotometrisch bestimmt.
Der Na ^+-Nettoinflux wurde aus der Differenz zwischen Natrium-Ausgangswerten und dem Natriumgehalt der Erythrocyten nach Inkubation errechnet. Der Amiloridhemmbare Natrium-Influx ergab sich aus der Differenz des Natriumgehalts der Erythrocyten nach Inkubation mit und ohne Amilorid 3 x 10^-4 mol/l. Auf diese Weise wurde auch bei den erfindungsgemäßen Verbindungen verfahren.
Consider “4-(4-Guanidinocarbonyl)phenylsulfamoyl-benzoylguanidin [Beispiel 3]”, for which the IC50 was 1500 nM.

For the molecule `NC(N)=NC(=O)c1ccc(-c2cccc(C(=O)N=C(N)N)c2)cc1` [Beispiel 1, 3-(4-Guanidinocarbonyl)phenyl-benzoylguanidin], the IC50 came to 1500 nM.

Turning to `NC(N)=NC(=O)c1ccc(-c2ccccc2C(=O)N=C(N)N)cc1` [Beispiel 2, 2-(4-Guanidinocarbonyl)phenyl-benzoylguanidin], the IC50 worked out at 5000 nM.

On to `NC(N)=NC(=O)c1ccc(-c2ccc(C(=O)N=C(N)N)cc2)cc1` [Beispiel 4, Biphenyl-4,4'-dicarbonsäure-diguanidid], for which the IC50 was determined as 2000 nM.

Turning to `NC(N)=NC(=O)c1ccc(S(=O)(=O)NC(=O)Nc2cccc(C(=O)N=C(N)N)c2)cc1` [Beispiel 5, 4[3-(Guanidinocarbonyl)phenylaminocarbonylaminosulfonyl]-benzoylguanidin], the IC50 came out at 10000 nM.
